Source: patent US4393225A, “AI-77 Compounds and pharmaceutically acceptable salts thereof” (Asahi Kasei Kogyo Kabushiki Kaisha, priority 1979, dated 1983)

Columns and labels:
ulcer = assay: Anti-ulcer test (restraint and water immersion ulcer in rats, i.p.); format: in vivo, Male Wistar rats; details: Rattus norvegicus, ip, read-out: % Inhibition of Ulcer; for inhibition in vivo at 50 mg/kg: 50 mg/kg i.p.; for inhibition in vivo at 25 mg/kg: 25 mg/kg i.p.
Outline: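 Male Wistar rats (~150 g), fasted 24 h, dosed i.p. with compound in physiological saline; 1 h later restrained and immersed to xiphisternum in 21 °C water for 6 h. Stomachs examined microscopically, ulcers scored 0–3, and percent inhibition calculated.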

edema = assay: Anti-edema test (carrageenan hindfoot edema in rats, p.o.); format: in vivo, Male Wistar rats; details: Rattus norvegicus, po; 100 mg/kg p.o. (after 3 hours)
Protocol: Tables 13, 14 and 15 show the effect of these compounds to inhibit the occurrence of ulcer and edema. The anti-ulcer and anti-edema activity of the compounds was evaluated in efficacy tests described below. The first two symbols that appear in each of the compound names in Tables 13 and 15 represent the compounds synthesized in the methods (1) through (29); for example, IIIa-1 of a compound IIIa-1-1 represent the compound (IIIa-1).
Male Wistar rats weighing about 150 g on average were starved overnight prior to the test. They were than orally administered 100 mg/kg of the test compound. One hour later, the pad of a hindfoot of the animal was injected with 1 mg of carrageenan. The volume of the foot was measured both before the injection of carrageenan and three hours after the injection. The percent edema inhibition of the test compound was calculated from the ratio of the increase in the volume of the affected foot of the test animals to the increase in the volume of the affected foot of the controls.

[1] = Solubility of compounds A to G; format: physicochemical; details: in water and organic solvents
[2] = Stability (heat, alkali, aqueous solution) of compounds A to G; format: physicochemical

SMILES	inhibition in vivo at 50 mg/kg (ulcer) [%]	inhibition in vivo at 100 mg/kg (edema) [%]	other results
CC(C)CNC1CC(=O)OC1C(O)C(=O)NC(CC(C)C)C1Cc2cccc(O)c2C(=O)O1 (centres unmarked) [IIIa-18-4]	94	47	
CCCCNC1CC(=O)OC1C(O)C(=O)NC(CC(C)C)C1Cc2cccc(OC)c2C(=O)O1 (centres unmarked) [IIIa-22-74]	100	45	
CC(C)CC(NC(=N)C(O)C(O)C(N)CC(=O)O)C1Cc2cccc(O)c2C(=O)O1 (centres unmarked) [A]	100		solubility [1]: freely soluble in water, methanol, dimethylformamide, and dimethyl sulfoxide, sparingly soluble in a lower alcohol of C2 to C3 and dioxane, and substantially insoluble in ethyl acetate, chloroform, ether, hexane and benzene; stability to heat and/or alkali [2]: very labile to heat and alkali
CCCCOc1cccc2c1C(=O)OC(C(CC(C)C)NC(=O)C(O)C1OC(=O)CC1NCC)C2 (centres unmarked) [IIIa-22-3]	94	38	
CC(C)CC(NC(=O)C(O)C(O)C(N)CC(=O)O)C(O)Cc1cccc(O)c1C(=O)O (centres unmarked) [G]	33		solubility [1]: freely soluble in water and slightly soluble in organic solvents; stability in aqueous solution ([2]; aqueous solution): relatively stable in aqueous solution
CCCCCCNC1CC(=O)OC1C(O)C(=O)NC(CC(C)C)C1Cc2cccc(O)c2C(=O)O1 (centres unmarked) [IIIa-18-7]	100	51	
CC(C)CCNC1CC(=O)OC1C(O)C(=O)NC(CC(C)C)C1Cc2cccc(O)c2C(=O)O1 (centres unmarked) [IIIa-18-5]	100	47	
CCCCCCCCCCCCCCCCCCNC1CC(=O)OC1C(O)C(=O)NC(CC(C)C)C1Cc2cccc(O)c2C(=O)O1 (centres unmarked) [IIIa-18-11]	83	35	
CCCCCCCNC1CC(=O)OC1C(O)C(=O)NC(CC(C)C)C1Cc2cccc(O)c2C(=O)O1 (centres unmarked) [IIIa-18-8]	94	50	
CCCCNC1CC(=O)OC1C(O)C(=O)NC(CC(C)C)C1Cc2cccc(O)c2C(=O)O1 (centres unmarked) [IIIa-18-3]	100	42	
CCCNC1CC(=O)OC1C(O)C(=O)NC(CC(C)C)C1Cc2cccc(O)c2C(=O)O1 (centres unmarked) [IIIa-18-2]	100	38	
CCNC1CC(=O)OC1C(O)C(=O)NC(CC(C)C)C1Cc2cccc(O)c2C(=O)O1 (centres unmarked) [IIIa-18-1]	100	38	
CCC(=O)NC1CC(=O)OC1C(O)C(=O)NC(CC(C)C)C1Cc2cccc(O)c2C(=O)O1 (centres unmarked) [D]	66		solubility [1]: soluble in lower alcohol, dimethylformamide, dimethyl sulfoxide, dioxane, chloroform, and ethyl acetate, and substantially insoluble in water, ether, hexane and benzene; stability to heat and/or alkali [2]: as labile to alkali as AI-77-B
CCNC1CC(=O)OC1C(O)C(=O)NC(CC(C)C)C1Cc2cccc(OCC)c2C(=O)O1 (centres unmarked) [IIIa-22-1]	94	37	
CCOc1cccc2c1C(=O)OC(C(CC(C)C)NC(=O)C(O)C1OC(=O)CC1NCCC(C)C)C2 (centres unmarked) [IIIa-22-2]	94	35	
CCNC1CC(=O)OC1C(O)C(=O)NC(CC(C)C)C1Cc2cccc(OC)c2C(=O)O1 (centres unmarked) [IIIa-22-5]	94	37	
CNC1CC(=O)OC1C(O)C(=O)NC(CC(C)C)C1Cc2cccc(O)c2C(=O)O1 (centres unmarked) [IIIa-27-1]	100	38	
CCCCCNC1CC(=O)OC1C(O)C(=O)NC(CC(C)C)C1Cc2cccc(O)c2C(=O)O1 (centres unmarked) [IIIa-18-6]	94	50	
CCCCNC1CC(=O)OC1C(O)C(=O)NC(CC(C)C)C1Cc2cccc(OCC)c2C(=O)O1 (centres unmarked) [IIIa-22-75]	100	48	
CCCCCCCCCCCCNC1CC(=O)OC1C(O)C(=O)NC(CC(C)C)C1Cc2cccc(O)c2C(=O)O1 (centres unmarked) [IIIa-18-10]	94	43	
CCCCCCCCNC1CC(=O)OC1C(O)C(=O)NC(CC(C)C)C1Cc2cccc(O)c2C(=O)O1 (centres unmarked) [IIIa-18-9]	94	43	
CCCC=Cc1ccc(CNC(=O)CC(N)C(O)C(O)C(=O)NC(CC(C)C)C2Cc3cccc(O)c3C(=O)O2)cc1 (centres unmarked) [VII-1-41]			inhibition in vivo at 25 mg/kg (ulcer): 83%
CCOc1cccc2c1C(=O)OC(C(CC(C)C)NC(=O)C(OC)C1OC(=O)CC1NC(=O)C1CCCO1)C2 (centres unmarked) [IIIa-7-6]	22		
CC(=O)Oc1cccc2c1C(=O)OC(C(CC(C)C)NC(=N)C(OC(C)=O)C(O)C(CC(=O)O)NCC1CCCO1)C2 (centres unmarked) [Vb-12-2]	56		

SMILES	inhibition in vivo at 50 mg/kg (ulcer) [%]	inhibition in vivo at 100 mg/kg (edema) [%]	other results
CCCC(=O)NC1CC(=O)OC1C(OC)C(=O)NC(CC(C)C)C1Cc2cccc(OCC3CCCCO3)c2C(=O)O1 (centres unmarked) [IIIa-7-14]	33		
CCCCOc1cccc2c1C(=O)OC(C(CC(C)C)NC(=O)C(O)C(O)C(CC(=O)NC)NCC)C2 (centres unmarked) [VII-14-1]			inhibition in vivo at 25 mg/kg (ulcer): 72%
CCOc1cccc2c1C(=O)OC(C(CC(C)C)NC(=O)C(O)C1OC(=O)CC1NC(=O)c1ccc3ccccc3c1)C2 (centres unmarked) [IIIa-5-17]	33		
CCCCCC(=O)NC1CC(=O)OC1C(O)C(=O)NC(CC(C)C)C1Cc2cccc(O)c2C(=O)O1 (centres unmarked) [IIIa-1-7]	66		
CCCCOC(C(=O)NC(CC(C)C)C1Cc2cccc(OC)c2C(=O)O1)C(O)C(CC(N)=O)NC (centres unmarked) [VII-25-1]			inhibition in vivo at 25 mg/kg (ulcer): 66%
CC(=O)Oc1cccc2c1C(=O)OC(C(CC(C)C)NC(=O)C(OC(C)=O)C1OC(=O)CC1NC(=O)C1CCCO1)C2 (centres unmarked) [IIIa-3-6]	33		
CCCCNC1CC(=O)OC1C(OC(=O)CCC)C(=O)NC(CC(C)C)C1Cc2cccc(O)c2C(=O)O1 (centres unmarked) [IIIa-19-10]	66		
CC(=O)Oc1cccc2c1C(=O)OC(C(CC(C)C)NC(=N)C(OC(C)=O)C(O)C(CC(=O)O)NCc1ccc(C)cc1)C2 (centres unmarked) [Vb-12-3]	44		
C/C=C/C(=O)Oc1cccc2c1C(=O)OC(C(CC(C)C)NC(=O)C(O)C1C=CC(=O)O1)C2 (centres unmarked) [IVa-3-18]	33		
CCOc1cccc2c1C(=O)OC(C(CC(C)C)NC(=O)C(OC(=O)C(C)C)C(O)C(CC(N)=O)NC)C2 (centres unmarked) [VII-24-2]			inhibition in vivo at 25 mg/kg (ulcer): 66%
CCCCNC(CC(=O)O)C(O)C(OC(=O)CCC)C(=N)NC(CC(C)C)C1Cc2cccc(O)c2C(=O)O1 (centres unmarked) [Vb-11-3]	72		
CC(C)CC(NC(=O)C(O)C(O)C(N)CC(=O)NCC1CCCCCCC1)C1Cc2cccc(O)c2C(=O)O1 (centres unmarked) [VII-1-33]			inhibition in vivo at 25 mg/kg (ulcer): 83%
CCOc1cccc2c1C(=O)OC(C(CC(C)C)NC(=O)C(O)C1OC(=O)CC1NC(=O)CC(C)OC)C2 (centres unmarked) [IIIa-5-41]	33		
CCOc1cccc2c1C(=O)OC(C(CC(C)C)NC(=O)C(O)C1OC(=O)CC1NC(=O)c1cocc1C(=O)O)C2 (centres unmarked) [IIIa-5-59]	44		
CCOc1cccc2c1C(=O)OC(C(CC(C)C)NC(=O)C(O)C1OC(=O)CC1NC(=O)CC(C)C)C2 (centres unmarked) [IIIa-5-2]	44		
CC(C)CC(NC(=O)C(O)C(O)C(N)CC(=O)NCCc1ccc2ccccc2c1)C1Cc2cccc(O)c2C(=O)O1 (centres unmarked) [VII-1-19]			inhibition in vivo at 25 mg/kg (ulcer): 78%
CCCCCCCCCCCC(=O)Oc1cccc2c1C(=O)OC(C(CC(C)C)NC(=O)C(O)C1C=CC(=O)O1)C2 (centres unmarked) [IVa-3-8]	33		
CCNC1CC(=O)OC1C(OC)C(=O)NC(CC(C)C)C1Cc2cccc(O)c2C(=O)O1 (centres unmarked) [IIIa-25-9]	66		
CC(C)CC(NC(=O)C(O)C1OC(=O)CC1NC(=O)C(Cl)(Cl)Cl)C1Cc2cccc(OCCCC3CCCC3)c2C(=O)O1 (centres unmarked) [IIIa-5-124]	33		
COC(C)(C)CC(=O)NC1CC(=O)OC1C(O)C(=O)NC(CC(C)C)C1Cc2cccc(O)c2C(=O)O1 (centres unmarked) [IIIa-1-83]	66		
CCOc1cccc2c1C(=O)OC(C(CC(C)C)NC(=O)C(O)C1OC(=O)CC1NC(=O)CCC1CCCC1)C2 (centres unmarked) [IIIa-5-61]	33		
CCC(=O)OC(C(=O)NC(CC(C)C)C1Cc2cccc(OC)c2C(=O)O1)C1OC(=O)CC1NC(C)=O (centres unmarked) [IIIa-6-12]	33		
CCCCCCCCCCCCCCCCCC(=O)Oc1cccc2c1C(=O)OC(C(CC(C)C)NC(=O)C(O)C(O)C(N)CC(N)=O)C2 (centres unmarked) [VII-4-3]			inhibition in vivo at 25 mg/kg (ulcer): 78%
